Laboratory results taken from ChEMBL document CHEMBL3832029, “DailyMed|setid=517810a4-76bb-4739-893f-1f2ba94a5d0c | ZENATANE -isotretinoin capsule, gelatine coated”.
Values joined by “and” are separate entries in the source; they are usually repeats but may differ in a detail not shown here. Equal entries are not always repeated.

Key:
Format in all cases: ADME, organism-based
[1] = (§1) Mean pharmacokinetics parameters for Isotretinoin following single oral administration of Isotretinoin to healthy subjects.; parameters: dose 80 mg, route oral; conditions: human, in vivo, dietary status Fed, dosed compound id 16, dosed compound name ISOTRETINOIN, regimen Single dose, tissue Plasma; for AUC: po, 80 mg
Homo sapiens [2] = test: as §1; parameters: dose 80 mg, route oral; conditions: in vivo, po, dosed compound id 16, dosed compound name ISOTRETINOIN, regimen Single dose, tissue Plasma
[3] = (§2) Steady-state pharmacokinetic parameters of Isotretinoin following multiple oral administration of Isotretinoin to 38 pediatric patients, […], after a non-standardised meal.; parameters: route oral; conditions: human, in vivo, dietary status Fed, dosed compound id 16, dosed compound name ISOTRETINOIN, regimen Multiple dose, tissue Plasma
Homo sapiens [4] = test: as §2; parameters: route oral; conditions: in vivo, po, dietary status Fed, dosed compound id 16, dosed compound name ISOTRETINOIN, regimen Multiple dose, tissue Plasma
[5] = dietary status Fasting, dose 80 mg

CC1=C(/C=C/C(C)=C/C=C/C(C)=C\C(=O)O)C(C)(C)CCC1 [ISOTRETINOIN]
AUC ([1]; read-out: AUC(0-12)): 3030 ng·h/mL
AUC ([1]; read-out: AUC(0-24)): 6000 ng·h/mL
Tmax ([1]; dose 80 mg, route oral): 5.3 h
half-life ([1]; dose 80 mg, route oral): 1260 min
Tmax (Homo sapiens [2]; [5]): 3.2 h
t1/2 (Homo sapiens [2]; [5]): 21 h
AUC(0 to inf) (Homo sapiens [2]; dietary status Fasting): 3700 ng·h/mL
Cmax (Homo sapiens [2]; dietary status Fasting): 301 ng/mL
AUC(0 to inf) (Homo sapiens [2]; dietary status Fed): 10000 ng·h/mL
Cmax (Homo sapiens [2]; dietary status Fed): 862 ng/mL and 573.25 ng/mL
Tmax (Homo sapiens [2]; dietary status Fed): 6 h
Cmax ([3]; po): 732 ng/mL
AUC ([3]; po, read-out: AUC(0-12)): 5080 ng·h/mL
CL/F ([3]; route oral): 299 mL/min
Tmax ([3]; route oral): 4 h
half-life ([3]; route oral): 941 min
Css min (Homo sapiens [4]): 352.32 ng/mL
